Measured values reported in patent US11667602B2, “Compounds and their use” (AstraZeneca AB, priority 2020, dated 2023).
Where two headings read alike, the source gives them in different places.

Biological target: T1, human RXFP1 (Homo sapiens, UniProt Q9HBX9)
T1 sequence (Q9HBX9 1-757): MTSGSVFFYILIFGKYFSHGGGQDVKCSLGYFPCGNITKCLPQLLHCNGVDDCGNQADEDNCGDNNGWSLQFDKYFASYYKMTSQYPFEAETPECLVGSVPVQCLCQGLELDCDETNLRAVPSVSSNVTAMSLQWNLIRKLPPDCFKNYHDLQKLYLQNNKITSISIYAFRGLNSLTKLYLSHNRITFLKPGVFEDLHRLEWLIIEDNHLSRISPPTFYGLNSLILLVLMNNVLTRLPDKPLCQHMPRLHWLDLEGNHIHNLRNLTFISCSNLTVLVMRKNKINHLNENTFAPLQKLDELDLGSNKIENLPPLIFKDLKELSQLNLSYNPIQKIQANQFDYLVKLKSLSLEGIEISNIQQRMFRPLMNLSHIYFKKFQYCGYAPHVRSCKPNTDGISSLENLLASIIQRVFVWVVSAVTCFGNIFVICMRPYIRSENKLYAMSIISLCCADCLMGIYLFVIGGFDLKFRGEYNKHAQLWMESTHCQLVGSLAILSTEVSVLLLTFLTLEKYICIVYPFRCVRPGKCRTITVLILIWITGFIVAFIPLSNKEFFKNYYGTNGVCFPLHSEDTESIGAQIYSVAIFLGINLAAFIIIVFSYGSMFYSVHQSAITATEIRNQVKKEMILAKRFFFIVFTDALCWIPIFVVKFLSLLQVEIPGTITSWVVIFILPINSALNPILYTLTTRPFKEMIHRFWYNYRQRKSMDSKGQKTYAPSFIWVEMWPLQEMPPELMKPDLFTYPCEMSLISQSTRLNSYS
Assay: RXFP1 Hu cAMP (Test A)
Type: cell-based
Parameters: expressed in transfected cells; host or cells: Jump-In T-REx CHO-K1 cells (ThermoFisher), induced with 10 ng/ml doxycycline for 24 h
Method in brief: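 Competitive HTRF cAMP readout (2 h, room temperature) in CHO-K1 cells stably expressing human RXFP1, induced with 10 ng/ml doxycycline for 24 h; IBMX 0.5 mM final.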

[1] = RXFP1 Hu cAMP, read-out: Test A EC50

Molecule | Test A Sinf (RXFP1 Hu cAMP) [%] | EC50 [1] [nM] | EC50 (Test A EC50, RXFP1 Hu cAMP) [nM]
COc1cc(C#N)c(O[C@H]2CC[C@@](C)(C(=O)O)CC2)cc1C(=O)N[C@@H]1C2CCC(CC2)[C@@H]1C(=O)NCC1(C)CCC1 (racemic) [Example 468, (1R,4s)-4-(2-Cyano-4-methoxy-5-(((2SR,3RS)-3-(((1-methylcyclobutyl)methyl)carbamoyl)bicyclo[2.2.2]octan-2-yl)carbamoyl)phenoxy)-1-methylcyclohexane-1-carboxylic acid] | 93 | 4.1 | –
COc1cc(F)c(O[C@H]2CC[C@@](C)(c3noc(=O)[nH]3)CC2)cc1C(=O)N[C@@H]1[C@H]2CC[C@H](C2)[C@@H]1C(=O)NCC1(C)CCC1 [Example 418, (1R,2S,3R,4S)-3-(4-fluoro-2-methoxy-5-(((1s,4S)-4-methyl-4-(5-oxo-4,5-dihydro-1,2,4-oxadiazol-3-yl)cyclohexyl)oxy)benzamido)-N-((1-methylcyclobutyl)methyl)bicyclo[2.2.1]heptane-2-carboxamide] | 100 | – | 64
(1R,4s)-4-(2-Fluoro-5-(((3S*,4R*)-4-((4-fluoro-3-(pentafluoro-λ6-sulfaneyl)phenyl)carbamoyl)tetrahydrofuran-3-yl)carbamoyl)-4-methoxyphenoxy)-1-methylcyclohexane-1-carboxylic acid [Example 565] | 113 | – | –
COc1cc(F)c(OC2CCC(C)(CC(=O)O)CC2)cc1C(=O)NC1C2CCC(C2)C1C(=O)NCC1(C)CCC1 [Example 476, 2-((1S,4s)-4-(2-Fluoro-4-methoxy-5-(((1S,2R,3S,4R)-3-(((1-methylcyclobutyl)methyl)carbamoyl)bicyclo[2.2.1]heptan-2-yl)carbamoyl)phenoxy)-1-methylcyclohexyl)acetic acid] | 81 | 300 | –
COc1cc(F)c(OCc2ccc(C(C)(C)C(=O)O)cc2)cc1C(=O)N[C@H]1[C@@H](C(=O)Nc2cccc(S(=O)(=O)C(F)(F)F)c2)[C@@H]2C=C[C@H]1C2 (racemic) [Example 452] | 104 | 980 | –
COc1cc(F)c(OC2CCC(CO)(C(=O)O)CC2)cc1C(=O)N[C@H]1[C@@H](C(=O)NCC2(C)CCC2)[C@H]2CC[C@@H]1O2 (relative stereo) [Example 533, (1R,4s)-4-(2-Fluoro-4-methoxy-5-(((1S*,2S*,3R*,4R*)-3-(((1-methylcyclobutyl)methyl)carbamoyl)-7-oxabicyclo[2.2.1]heptan-2-yl)carbamoyl)phenoxy)-1-(hydroxymethyl)cyclohexane-1-carboxylic acid] | – | > 40000 | –
COc1cc(C#N)c(O[C@H]2CC[C@@](C)(C(=O)O)CC2)cc1C(=O)N[C@@H]1[C@H]2CC[C@H](C2)[C@@H]1C(=O)NC1CCC(C)(C)CC1 [Example 128] | 88 | 46 | –
COC[C@]1(C(=O)O)CC[C@@H](Oc2cc(C(=O)N[C@@H]3[C@@H]4CC[C@@H](C4)[C@@H]3C(=O)Nc3cccc(S(=O)(=O)C(F)(F)F)c3)c(OC)cc2F)CC1 [Example 479] | 104 | 7.8 | –
COc1cc(C#N)c(O[C@H]2CC[C@@](C)(C(=O)O)CC2)cc1C(=O)Nc1cc(C)ccc1C(=O)N[C@H](C)C(C)C [Example 170] | 136 | 190 | –
COc1cc(F)c(-c2ccnc(C(=O)O)c2)cc1C(=O)N[C@H]1[C@@H](C(=O)Nc2cccc(S(=O)(=O)C(F)(F)F)c2)[C@@H]2C=C[C@H]1C2 (racemic) [Example 272, rac-4-(2-Fluoro-4-methoxy-5-(((1R,2R,3S,4S)-3-((3-((trifluoromethyl)sulfonyl)phenyl)carbamoyl)bicyclo[2.2.1]hept-5-en-2-yl)carbamoyl)phenyl)picolinic acid] | 107 | 4900 | –
COc1cc(F)c(OCc2ccc(C(=O)O)cc2)cc1C(=O)N[C@@H]1[C@H]2CC[C@H](C2)[C@@H]1C(=O)Nc1cccc(S(=O)(=O)C(F)(F)F)c1 [Example 438] | 112 | 260 | –
COc1cc(F)c(OC2CCC(C)(C(=O)O)CC2)cc1C(=O)NC1CC(OC)CC1C(=O)Nc1cccc(S(=O)(=O)C(F)(F)F)c1 (single isomer, unassigned) [Example 522, (1R,4s)-4-(2-Fluoro-4-methoxy-5-(((1S*,2R*,4S*)-4-methoxy-2-((3-((trifluoromethyl)sulfonyl)phenyl)carbamoyl)cyclopentyl)carbamoyl)phenoxy)-1-methylcyclohexane-1-carboxylic acid] | – | > 40000 | –
COc1cc(C#N)c(O[C@H]2CC[C@@](C)(C(=O)O)CC2)cc1C(=O)N[C@@H]1[C@H]2CC[C@H](C2)[C@@H]1C(=O)NCC1CCOCC1 [Example 137] | 93 | > 2300 | –

Now from value to molecule, other results behind:

Test A Sinf (RXFP1 Hu cAMP) [%] | EC50 [1] [nM] | Molecule | EC50 (Test A EC50, RXFP1 Hu cAMP) [nM]
114 | 260 | COc1cc(F)c(-c2ccc(C(=O)O)cc2)cc1C(=O)N[C@@H]1[C@@H]2CC[C@@H](C2)[C@@H]1C(=O)Nc1cccc(S(=O)(=O)C(F)(F)F)c1 (racemic) [Example 303] | –
100 | 11000 | COc1cc(C#N)c(O[C@H]2CC[C@@](C)(C(=O)O)CC2)cc1C(=O)NC1C2CCC(CC2)C1C(=O)NCC1(C)CCC1 (single isomer, unassigned) [Example 538, (1R,4s)-4-(2-Cyano-4-methoxy-5-(((2S*,3R*)-3-(((1-methylcyclobutyl)methyl)carbamoyl)bicyclo[2.2.2]octan-2-yl)carbamoyl)phenoxy)-1-methylcyclohexane-1-carboxylic acid] | –
100 | 120 | COc1cc(F)c(O[C@H]2CC[C@@](C)(C(=O)O)CC2)cc1C(=O)N[C@@H]1[C@H]2CC[C@H](C2)[C@@H]1C(=O)N[C@H](C)C(C)(C)C#N [Example 615] | –
– | > 2500 | COCc1cc(F)c(O[C@H]2CC[C@@](C)(C(=O)O)CC2)cc1C(=O)N[C@@H]1[C@H]2CC[C@H](C2)[C@@H]1C(=O)NCC1(C)CCC1 [Example 380] | –
125 | – | COc1cc(F)c(O[C@H]2CC[C@H](S(N)(=O)=O)CC2)cc1C(=O)N[C@@H]1[C@@H]2CC[C@@H](C2)[C@@H]1C(=O)Nc1cccc(S(=O)(=O)C(F)(F)F)c1 [Example 462, (1S,2S,3R,4R)-3-(4-fluoro-2-methoxy-5-(((1r,4R)-4-sulfamoylcyclohexyl)oxy)benzamido)-N-(3-((trifluoromethyl)sulfonyl)phenyl)bicyclo[2.2.1]heptane-2-carboxamide] | –
115 | 6.4 | COc1cc(F)c(O[C@H]2CC[C@@](C)(C(=O)O)CC2)cc1C(=O)N[C@@H]1CC[C@@H]1C(=O)Nc1ccc(F)c(S(F)(F)(F)(F)F)c1 (racemic) [Example 347] | –
107 | 15000 | COc1cc(F)c(O[C@H]2CC[C@@](C)(C(=O)O)CC2)cc1C(=O)NC1CCN(C(C)=O)CC1C(=O)Nc1cccc(S(=O)(=O)C(F)(F)F)c1 (single isomer, unassigned) [Example 514, (1R,4s)-4-(5-(((3R*,4S*)-1-Acetyl-3-((3-((trifluoromethyl)sulfonyl)phenyl)carbamoyl)piperidin-4-yl)carbamoyl)-2-fluoro-4-methoxyphenoxy)-1-methylcyclohexane-1-carboxylic acid] | –
95 | 84 | COc1cc(C#N)c(O[C@H]2CC[C@@](C)(C(=O)O)CC2)cc1C(=O)N[C@@H]1[C@H]2CC[C@H](C2)[C@@H]1C(=O)N[C@@H](C)c1ccccc1 (racemic) [Example 140] | –
93 | 690 | COc1cc(F)c(O[C@H]2CC[C@@](C)(C(=O)O)CC2)cc1C(=O)N[C@@H]1[C@H]2CC[C@H](C2)[C@@H]1C(=O)NCC1CC(F)(F)C1 [Example 620] | –
84 | 860 | COc1cc(F)c(C2CCC(C(=O)O)CC2)cc1C(=O)NC1C2CCC(C2)C1C(=O)Nc1cccc(S(=O)(=O)C(F)(F)F)c1 [Example 268, (1S,4s)-4-(2-Fluoro-4-methoxy-5-(((1S,2R,3S,4R)-3-((3-((trifluoromethyl)sulfonyl)phenyl)carbamoyl)bicyclo[2.2.1]heptan-2-yl)carbamoyl)phenyl)cyclohexane-1-carboxylic acid] | –
95 | 7.6 | CC1(CNC(=O)C2C3CCC(CC3)C2NC(=O)c2cc(O[C@H]3CC[C@@](C)(C(=O)O)CC3)c(C#N)cc2F)CCC1 (single isomer, unassigned) [Example 588, (1R,4s)-4-(2-Cyano-4-fluoro-5-(((2S*,3R*)-3-(((1-methylcyclobutyl)methyl)carbamoyl)bicyclo[2.2.2]octan-2-yl)carbamoyl)phenoxy)-1-methylcyclohexane-1-carboxylic acid] | –
71 | 1300 | COc1cc(C#N)c(O[C@H]2CC[C@@](C)(C(=O)O)CC2)cc1C(=O)N[C@@H]1[C@H]2CC[C@H](C2)[C@@H]1C(=O)NCCCOC(C)C [Example 122] | –
